# Measurements published in patent publication US5770617A, “Terbenzimidazoles useful as antifungal agents” (Rutgers, The State University of New Jersey, priority 1997, dated 1998).
# “Also recorded” adds a separate entry of the source.
# What was measured:
# [1] = target: T1, calf thymus topoisomerase I (Bos taurus, UniProt F1MN93); experiment: Topoisomerase I-mediated DNA cleavage assay (calf thymus enzyme); assay type: biochemical; conditions: for Topo I-mediated DNA cleavage (REC, Relative Effective Concentration): concentration relative to Hoechst 33342 (arbitrarily 1) producing the same cleavage on plasmid DNA, calf thymus topoisomerase I
# T1 construct: DNA topoisomerase I was purified from calf thymus gland as reported previously; from tissue; host or cells: calf thymus gland
# T1 sequence (F1MN93 1-767): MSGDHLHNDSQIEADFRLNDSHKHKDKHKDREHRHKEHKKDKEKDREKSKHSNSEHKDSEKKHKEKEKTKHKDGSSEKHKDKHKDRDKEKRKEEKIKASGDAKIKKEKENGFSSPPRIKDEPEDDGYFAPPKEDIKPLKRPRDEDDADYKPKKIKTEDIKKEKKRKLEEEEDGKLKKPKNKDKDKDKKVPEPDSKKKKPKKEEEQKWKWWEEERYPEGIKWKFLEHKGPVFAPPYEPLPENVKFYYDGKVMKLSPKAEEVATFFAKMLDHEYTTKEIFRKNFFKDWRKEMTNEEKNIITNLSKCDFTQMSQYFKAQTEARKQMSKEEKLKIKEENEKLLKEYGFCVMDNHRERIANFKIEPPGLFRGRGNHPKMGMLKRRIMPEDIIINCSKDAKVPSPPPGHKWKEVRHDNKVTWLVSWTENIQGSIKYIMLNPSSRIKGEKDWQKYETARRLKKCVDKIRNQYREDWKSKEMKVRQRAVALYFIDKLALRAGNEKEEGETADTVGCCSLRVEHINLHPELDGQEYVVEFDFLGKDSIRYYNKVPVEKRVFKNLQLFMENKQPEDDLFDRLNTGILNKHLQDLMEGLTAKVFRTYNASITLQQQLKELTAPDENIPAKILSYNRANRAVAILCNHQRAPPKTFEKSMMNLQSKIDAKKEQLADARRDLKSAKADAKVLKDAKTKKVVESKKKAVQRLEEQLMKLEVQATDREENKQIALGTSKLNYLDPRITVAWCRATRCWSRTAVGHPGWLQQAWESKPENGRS
# Excerpt: A. Topoisomerase I-Mediated DNA Cleavage Assays
# DNA topoisomerase I was purified from calf thymus gland as reported previously by B. D. Halligan et al., J. Biol. Chem., 260, 2475 (1985).
# Plasmid YEpG was also purified by the alkali lysis method followed by phenol deproteination and CsCl/ethidium isopycnic centrifugation as described by T. Maniatis et al., Molecular Cloning, A Laboratory Manual, Cold Spring Harbor Labs, N.Y. (1982) at pages 149-185. The end-labeling of the plasmid was accomplished as previously described by L. F. Liu et al., J. Biol. Chem., 258, 15365 (1983). The cleavage assays were performed as previously reported by A. Y. Chen et al., Cancer Res., 53, 1332 (1993). Human topoisomerase I was isolated as a recombinant fusion protein using a T7 expression system.
# [2] = test system: human lymphoblast RPMI 8402; experiment: MTT cytotoxicity assay, RPMI 8402; assay type: cell-based
# Procedure: The cytotoxicity was determined using the as MTT-microtiter plate tetrazolinium cytotoxicity assay (MTA) following the procedures of F. Denizot et al., J. Immunol. Methods, 89, 271 (1986); J. Carmichael et al., Cancer Res, 47, 936 (1987) and T. J. Mosmann et al., Immunol. Methods, 65, 55 (1983). The human lymphoblast RPMI 8402 and its camptothecin-resistant variant cell line, CPT-K5 were provided by Dr. Toshiwo Andoh (Aichi Cancer Center Research Institute, Nagoya, Japan). See, for example, T. Andoh et al., Adv. Pharmacol., 29B, 93 (1994). The cytotoxicity assay was performed using 96-well microtiter plates. Cells were grown in suspension at 37 ° C. in 5% CO2 and maintained by regular passage in RPMI medium supplemented with 10% heat inactivated fetal bovine serum, L-glutamine (2 mM), penicillin (100 U/ml), and streptomycin (0.1 mg/ml). For determination of IC50, cells were exposed continuously with varying concentrations of drug concentrations and MTT assays were performed at the end of the fourth day.
# [3] = target: T2, Aspergillus topoisomerase I (Aspergillus nidulans, UniProt Q5BGS7); experiment: Topoisomerase I cleavage assay, Aspergillus enzyme; assay type: biochemical; conditions: DNA cleavage assay
# T2 construct: about 105 kDa by phosphate transfer
# T2 sequence (Q5BGS7 1-871): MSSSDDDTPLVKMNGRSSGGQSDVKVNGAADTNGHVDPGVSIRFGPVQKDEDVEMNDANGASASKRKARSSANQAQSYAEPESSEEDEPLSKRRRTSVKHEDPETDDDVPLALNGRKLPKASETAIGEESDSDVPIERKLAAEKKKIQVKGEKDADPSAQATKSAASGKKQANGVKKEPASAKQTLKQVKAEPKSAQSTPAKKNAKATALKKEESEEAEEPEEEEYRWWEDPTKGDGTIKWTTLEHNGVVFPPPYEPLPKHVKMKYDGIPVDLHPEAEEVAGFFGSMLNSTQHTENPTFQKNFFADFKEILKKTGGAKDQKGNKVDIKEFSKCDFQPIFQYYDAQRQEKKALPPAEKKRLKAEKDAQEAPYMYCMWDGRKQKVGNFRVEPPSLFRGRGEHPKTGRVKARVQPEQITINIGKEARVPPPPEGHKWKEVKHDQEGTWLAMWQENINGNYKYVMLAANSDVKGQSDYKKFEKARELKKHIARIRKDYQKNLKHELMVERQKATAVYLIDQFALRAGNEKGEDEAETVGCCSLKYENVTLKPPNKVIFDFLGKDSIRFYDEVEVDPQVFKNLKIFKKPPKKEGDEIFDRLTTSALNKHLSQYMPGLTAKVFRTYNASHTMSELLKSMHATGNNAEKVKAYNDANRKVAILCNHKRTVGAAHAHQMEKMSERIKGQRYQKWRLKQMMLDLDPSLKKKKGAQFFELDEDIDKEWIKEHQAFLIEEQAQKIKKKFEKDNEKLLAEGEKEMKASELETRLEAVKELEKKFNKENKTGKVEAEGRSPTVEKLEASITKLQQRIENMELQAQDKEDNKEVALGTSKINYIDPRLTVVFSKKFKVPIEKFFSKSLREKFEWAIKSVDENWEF
# Procedure: Two liters of YG medium (0.5% yeast extract and 2% glucose) were inoculated with approximately 5×10^8 conidia/ml. After 16 hours of growth at 37° C., the mycelia were collected, washed with Buffer I (50 mM Tris-HCl, pH 7.7, 1 mM EDTA, 1 mM EGTA, 10% glycerol, 1 mM phenylmethylsulfonyl fluoride and 1 mM 2-mercaptoethanol), and quickly chilled in liquid nitrogen. The frozen mycelia (approximately 20 grams) were ground to powder and resuspended in 300 ml of Buffer I. The lysate was centrifuged at 10K rpm in a Sorval HB3 Rotor for 15 minutes to remove cell debris. The supernatant was made 6% in polyethylene glycol (v/v) and 1M NaCl. After one hour on ice with gentle stirring, the solution was centrifuged at 14K rpm in a Sorvall Rotor for 30 minutes to remove nucleic acids.
# Subsequent steps in purification were the same as described previously for purification of recombinant human DNA topoisomerase I (B. Gatto et al., Cancer Res., 56, 2795 (1996)). Briefly, the supernatant was chromatographed directly onto a hydroxyapatite Bio-gel HTP (BioRad Laboratories, Richmond, Calif.) column. Fractions containing relaxation activity were pooled, diluted and then loaded onto a BioRex70 column (BioRad Laboratories, Richmond, Calif.). The column was developed with a linear gradient from 0.2 to 1M KCl. The peak fractions were pooled and dialyzed overnight at 4° C. against 30 mM potassium phosphate, 50% glycerol (v/v), 0.5 mM EDTA, and 1 mM DTT. Recombinant human topoisomerase I was purified from Escherichia coli BL21 (DE3) harboring PET1B as described previously (Gatto et al., Cancer Res., 56, 2795 (1996)).
# DNA topoisomerase I cleavage assays were performed as described by Y.-H. Hsiang et al., J. Biol. Chem., 260, 14873 (1985). YEpG DNA was linearized with BamHI and then 3 '-end-labeled with Klenow polymerase and α[-^32 P]dCTP. Following phenol extraction and ethanol precipitation, the labeled DNA was resuspended in 10 mM Tris, pH 8.0, and 1 mM EDTA. The DNA cleavage assay was done in a reaction mixture (20 μl) containing 40 mM Tris-HCl, pH 7.8, 100 mM KCl, 10 mM MgCl2, 0.5 mM dithiothreitol, 0.5 mM EDTA, 30 μg/ml bovine serum albumin, 20 ng of labeled YEpG DNA, and […] of Aspergillus or human topoisomerase I diluted to various extents. Following incubation at 23° C. for 15 minutes, the reactions were terminated by the addition of SDS (final concentration 1%) and proteinase K (final concentration 200 μg/ml). Proteinase K treatment continued at 37° C. for another 1 hour. The terminated reactions were either alkali-denatured and then loaded (alkaline loading) or loaded directedly in neutral loading buffer (neutral loading) onto a 1% agarose gel in neutral TPE electrophoresis solution. Gel drying and autoradiography were performed as described by Hsiang et al., cited above.
# [4] = target: T3, mammalian DNA topoisomerase I (Homo sapiens, UniProt P11387); conditions: cited from earlier work
# T3 sequence (P11387 1-765): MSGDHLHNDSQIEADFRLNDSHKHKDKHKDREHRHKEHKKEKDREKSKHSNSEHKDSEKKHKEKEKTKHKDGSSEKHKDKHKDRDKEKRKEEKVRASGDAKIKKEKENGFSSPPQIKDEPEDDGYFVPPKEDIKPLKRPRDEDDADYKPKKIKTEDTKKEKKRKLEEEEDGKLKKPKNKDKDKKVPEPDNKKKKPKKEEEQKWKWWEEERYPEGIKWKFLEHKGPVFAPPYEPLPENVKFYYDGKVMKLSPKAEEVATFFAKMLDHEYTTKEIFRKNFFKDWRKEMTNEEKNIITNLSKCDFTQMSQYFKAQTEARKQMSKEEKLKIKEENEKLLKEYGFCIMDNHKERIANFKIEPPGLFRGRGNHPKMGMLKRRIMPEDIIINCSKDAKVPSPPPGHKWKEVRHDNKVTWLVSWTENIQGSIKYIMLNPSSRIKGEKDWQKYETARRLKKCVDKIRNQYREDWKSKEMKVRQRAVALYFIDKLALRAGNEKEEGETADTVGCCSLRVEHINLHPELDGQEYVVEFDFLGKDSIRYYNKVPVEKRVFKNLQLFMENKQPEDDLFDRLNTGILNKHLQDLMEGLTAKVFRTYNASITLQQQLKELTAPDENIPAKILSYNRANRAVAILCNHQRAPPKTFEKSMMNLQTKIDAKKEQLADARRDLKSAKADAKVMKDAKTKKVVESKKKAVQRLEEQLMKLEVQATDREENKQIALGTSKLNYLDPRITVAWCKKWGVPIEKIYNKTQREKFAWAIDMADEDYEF
# [5] = test system: yeast cells expressing human topoisomerase I; experiment: Yeast cytotoxicity assay, human topoisomerase I; assay type: cell-based, S. cerevisiae
# Excerpt: (§1) The topoisomerase I-specific in vivo cytotoxicity assay was adapted from A. M. Knab et al., J. Biol. Chem., 268, 22322 (1993). In this system, various topoisomerase I genes or cDNAs cloned into the single-copy yeast plasmid vector (YCpGAL1; Knab et al., cited above) are expressed under the control of the GAL1 promoter in the JN2-134 strain of S. cerevisiae (MAT, rad52::Leu2, trp1, ade2-1, his7, ura3-52, ise1, top1-1, and leu2; M. A. Bjornsti et al., Cancer Res., 49, 6318 (1989)). The topoisomerase I gene or cDNA constructs in the vector are, respectively, the wild-type yeast topoisomerase I gene (YCpGAL-ScTOP1; need cite (1989)), a nonfunctional topoisomerase I gene where the active site tyrosine-727 is mutated to phenylalanine (YCPGAL1-Sctop1Y727; A. M. Knab et al., J. Biol. Chem., 268, 22322 (1993)), and the wild-type human topoisomerase I cDNA (YCp-GAL-hTOP1; M. A. Bjornsti et al., Cancer Res., 49, 6318 (1989)).
# (§2) To qualitatively test the cytotoxicity and the topoisomerase I specificity of the drugs, yeast cells containing the specified plasmid were grown in dropout medium supplemented with uracil, 2% galactose, and the drug being tested.
# [6] = test system: yeast cells expressing yeast topoisomerase I; experiment: Yeast cytotoxicity assay, yeast topoisomerase I; assay type: cell-based, S. cerevisiae
# Excerpt: as §1, §2
# [7] = test system: yeast cells expressing nonfunctional yeast topoisomerase I; experiment: Yeast cytotoxicity assay, nonfunctional yeast topoisomerase I; assay type: cell-based, S. cerevisiae
# Excerpt: as §1, §2
# [8] = target: T4, human topoisomerase I (Homo sapiens, UniProt P11387); conditions: cited from earlier work
# T4 construct: made in house; host or cells: Escherichia coli BL21 (DE3) harboring PET1B
# T4 sequence (P11387 1-765): T3 sequence (P11387 1-765)
smiles,measurement,setting,value
"CCCc1ccc2[nH]c(-c3ccc4[nH]c(-c5ccc6[nH]cnc6c5)nc4c3)nc2c1 [Compound 12, 5-Propyl-2-[2'-(benzimidazol-5""-yl)benzimidazol-5'-yl]benzimidazole]","potency as topoisomerase I inhibitor compared with Hoechst 33342, in words",[1],much less active
same,"Topo I-mediated DNA cleavage (REC, Relative Effective Concentration)",[1],100
same,"cytotoxicity towards RPMI 8402, in words",[2],weak cytotoxicity
"Brc1ccc2[nH]c(-c3ccc4[nH]c(-c5ccc6[nH]cnc6c5)nc4c3)nc2c1 [JSKIV-37, 5-Bromo-2-[2'-(benzimidazol-5""-yl)benzimidazol-5'-yl]-benzimidazole]","Topo I-mediated DNA cleavage (REC, Relative Effective Concentration)",[1],1
same,IC50,"[2]; Homo sapiens, RPMI 8402, 96 h, read-out: Cytotoxicity IC50 RPMI",1.4 µM
O=[N+]([O-])c1ccc2nc(-c3ccc(O)cc3)[nH]c2c1 [QS/II/51],"inhibition (poisoning) of Aspergillus topoisomerase I, in words",[3],"None of the mono-benzimidazoles, including QS/II/50, QS/II/51, QS/II/59A, an QS/II/9, exhibited any inhibitory effect"
same,"inhibition (poisoning) of mammalian DNA topoisomerase I, previous studies",[4],inhibitors (poisons)
COc1cc2c[n+](C)c3c4cc5c(cc4ccc3c2cc1OC)OCO5 [nitidine],"inhibition (poisoning) of Aspergillus topoisomerase I, in words",[3],completely resistant; also recorded: did not inhibit Aspergillus topoisomerase I to any significant extent
same,cytotoxicity to yeast cells expressing human topoisomerase I,[5],highly cytotoxic
same,cytotoxicity to yeast cells expressing functional yeast topoisomerase I,[6],not cytotoxic
same,cytotoxicity to yeast cells expressing nonfunctional yeast topoisomerase I,[7],not cytotoxic
same,"inhibition of human topoisomerase I, in words (known / previously disclosed)",[8],highly potent inhibitors
